From patent US20100196586A1, “FOODSTUFF COMPOSITION TO IMPROVE DIGESTIBILITY OF FOODSTUFF LIPIDS” (ISL-INNOVATION SANTE LIPIDES, priority 2007, published 2010)
Each block holds one molecule with its values, some of them ahead of it.

How the values were obtained:
[1] = system: bile salt stimulated lipase (BSSL); assay: Intestinal lipolysis of triolein emulsions by bile salt stimulated lipase; assay type: biochemical, human
Description: (§1) The compounds have been tested in vitro in different experimental conditions for their ability to promote the action of three major lipolytic enzymes of the digestive tract, i.e., gastric lipase, colipase-dependent pancreatic lipase, bile salt stimulated lipase (BSSL), and their isoforms and variants.
(§2) Different lipidic emulsions have been prepared by sonication of a mixture of triolein (TO) (98.7%), cholesterol (0.5%) and phospholipids (0.8%).
(§3) The lipolysis tests have been carried out in vitro in conditions that mimic the physiology of the human digestive tract, either healthy or with pancreatic insufficiency (PI).
[…] Several variants of BSSL have been tested, numbered 1 to 8.
(§4) Lipolysis by the three main digestive tract lipases has also been tested in more complex conditions, i.e. in the presence of lipidic emulsions with a mixture of proteins plus lactose added in proportions that are found in normal or medically assisted nutrition.

gastric lipase = assay: Gastric lipolysis of triolein emulsions stabilized by phospholipids, with purified gastric lipases or gastric juices; assay type: biochemical, human
Description: as §1, §2, §3
Gastric lipolysis in the presence of gastric lipase has been carried out with purified lipases or gastric juices from different subjects at pH 5.40, at 37° C. for 60 minutes with a gastric lipase (U/mL)/lipids (micromoles of TO) ratio of 2.
as §4

[2] = molecular target: T1, colipase dependent pancreatic lipase (Sus scrofa, UniProt P00591); assay: Intestinal lipolysis of triolein emulsions by colipase dependent pancreatic lipase or pancreatine; assay type: biochemical, pig; details: for yield of pancreatic lipolysis (percentage of hydrolysis) compared with PC P/O emulsion: normal physiological conditions, two forms of pig pancreatic lipase (pure lipase or powder of pancreas), FIG. 3
T1 sequence (P00591 1-450): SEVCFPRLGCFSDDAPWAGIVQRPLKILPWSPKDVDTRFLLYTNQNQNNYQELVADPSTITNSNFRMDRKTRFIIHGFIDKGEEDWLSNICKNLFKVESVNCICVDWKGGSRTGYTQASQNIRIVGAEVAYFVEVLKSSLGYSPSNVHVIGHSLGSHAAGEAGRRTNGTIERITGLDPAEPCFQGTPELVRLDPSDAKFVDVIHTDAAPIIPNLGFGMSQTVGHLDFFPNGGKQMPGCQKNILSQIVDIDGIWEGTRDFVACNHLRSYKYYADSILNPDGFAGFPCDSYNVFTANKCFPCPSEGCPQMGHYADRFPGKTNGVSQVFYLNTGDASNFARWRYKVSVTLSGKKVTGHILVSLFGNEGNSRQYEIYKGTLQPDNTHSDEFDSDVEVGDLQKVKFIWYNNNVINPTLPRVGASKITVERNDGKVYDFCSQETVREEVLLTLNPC
T1 sequence (P02703 23-112 partner): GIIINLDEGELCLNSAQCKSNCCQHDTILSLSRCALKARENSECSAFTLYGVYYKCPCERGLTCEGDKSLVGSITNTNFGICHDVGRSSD
Description: as §1, §2, §3
Intestinal lipolysis in the presence of colipase dependent pancreatic lipase (lipase/colipase 1/1 molar ratio) or of pig pancreatic extract (pancreatine) was conducted at pH […] at 37° C. for 15 minutes, with a pancreatic lipase (U/mL)/micromoles of TO ratio of 20, and in the presence of pig bile in sufficient quantity for a bile salt concentration of 2 or 8 mM.
as §4

[3] = cited from earlier work
[4] = conditions of pancreatic insufficiency, mixture of pure bile salts, FIG. 6
[5] = gastric juices of different subjects, irrespective of the origin of gastric juice, FIG. 2
[6] = gastric juices of subject, pH 5.40, 37° C., 60 minutes, FIG. 1

yield of lipolysis by BSSL (percentage of hydrolysis) compared with PC P/O emulsion [1, 4]: significantly higher
yield of lipolysis by BSSL (percentage of hydrolysis) compared with PC P/O emulsion ([1]; normal conditions, FIG. 4): significantly higher
Molecule: DHA phosphatidylethanolamine [PE DHA]

yield of gastric lipolysis (percentage of hydrolysis) compared with the control CT emulsion (gastric lipase; [5]): significantly higher
yield of gastric lipolysis (percentage of hydrolysis) compared with the control CT emulsion (gastric lipase; [6]): significantly higher
yield of lipolysis by BSSL (percentage of hydrolysis) compared with PC P/O emulsion [1, 4]: significantly higher
yield of lipolysis by BSSL (percentage of hydrolysis) compared with PC P/O emulsion ([1]; normal conditions, FIG. 4): significantly higher
Molecule: egg-derived lysophosphatidylcholine [LPCO]

yield of gastric lipolysis (percentage of hydrolysis) compared with the control CT emulsion (gastric lipase; [6]): significantly higher
Molecule: CCCCCCCC/C=C\CCCCCCCC(=O)OC[C@@H](O)COP(=O)(O)O [LPAo, oleyl lysophosphatidic acid]

yield of gastric lipolysis (percentage of hydrolysis) compared with PC P/O and complex PC P/O (gastric lipase; different human gastric juices, simple emulsions and complex emulsions (lactose and milk proteins), FIG. 7): significantly higher
yield of gastric lipolysis (percentage of hydrolysis) compared with the control CT emulsion (gastric lipase; [5]): significantly higher
yield of gastric lipolysis (percentage of hydrolysis) compared with the control CT emulsion (gastric lipase; [6]): significantly higher
activator effect in the presence of a mixture of protein plus lactose (gastric lipase; gastric lipase, complex environment compared with simple emulsion): identical or even maximized
quantity at which the activator effect seems optimal (gastric lipase; gastric lipolysis of LHO/LPI emulsions, dose dependent): 0.8 % of total lipids
effect on gastric lipase degraded at its N-terminal end (yield of gastric lipolysis vs CT and/or PC P/O) (gastric lipase; purified gastric lipases or juices of different subjects with different degrees of N-terminal degradation, FIG. 10): reactivates degraded gastric lipase
yield of pancreatic lipolysis (percentage of hydrolysis) compared with PC P/O ([2]; conditions of pancreatic insufficiency, purified lipase, intestinal pH values typical of pancreatic insufficiency, FIG. 5): significantly higher
yield of pancreatic lipolysis (percentage of hydrolysis) compared with PC P/O emulsion [2]: significantly higher
activator effect in the presence of a mixture of protein plus lactose ([2]; pancreatic lipase, complex environment compared with simple emulsion): identical or even maximized
activator effect in the presence of a mixture of protein plus lactose ([1]; BSSL, complex environment compared with simple emulsion): identical or even maximized
yield of lipolysis by BSSL (percentage of hydrolysis) compared with PC P/O emulsion [1, 4]: significantly higher
activator effect on different variants of BSSL (1 to 8) compared with PC P/O ([1]; normal conditions (A) or conditions of pancreatic insufficiency (B), efficacy varies with type of BSSL, FIG. 11): confirmed
yield of lipolysis by BSSL (percentage of hydrolysis) compared with PC P/O emulsion ([1]; normal conditions, FIG. 4): significantly higher
yield of lipolysis by BSSL (percentage of hydrolysis) compared with PC P/O and complex PC P/O ([1]; purified human BSSL, pH 7.00, bile salts 8 mM (normal) or 2 mM (pancreatic insufficiency), with or without lactose and milk proteins, FIG. 9): significantly higher
Molecule: lysophosphatidylinositol [LPI]
effect of the dose of LPI on the yield of gastric lipolysis of the LHO emulsion (gastric lipase; LPI 0.1, 0.4 and 0.8% of total lipids, total phospholipids 0.8% of total lipids, gastric juices of subjects, FIG. 12): increase with increasing concentrations of LPI

Molecule: lysophosphatidylserine [LPS]
yield of pancreatic lipolysis (percentage of hydrolysis) compared with PC P/O emulsion [2]: significantly higher

B1: recombinant gastric lipase: recombinant dog gastric lipase (Merispase, Meristem) (protein, UniProt P80035 20-398, looked up)
Gastric triacylglycerol lipase: LFGKLHPTNPEVTMNISQMITYWGYPAEEYEVVTEDGYILGIDRIPYGRKNSENIGRRPVAFLQHGLLASATNWISNLPNNSLAFILADAGYDVWLGNSRGNTWARRNLYYSPDSVEFWAFSFDEMAKYDLPATIDFILKKTGQDKLHYVGHSQGTTIGFIAFSTNPKLAKRIKTFYALAPVATVKYTETLLNKLMLVPSFLFKLIFGNKIFYPHHFFDQFLATEVCSRETVDLLCSNALFIICGFDTMNLNMSRLDVYLSHNPAGTSVQNVLHWSQAVKSGKFQAFDWGSPVQNMMHYHQSMPPYYNLTDMHVPIAVWNGGNDLLADPHDVDLLLSKLPNLIYHRKIPPYNHLDFIWAMDAPQAVYNEIVSMMGTDNK
increase of the absorption level of lipids ([3]; administered together with pancreatic extracts, in 7 of the 11 patients studied): 17%
rate of absorption of lipids ([3]; subjects suffering from cystic fibrosis, alone, 600 mg/day, 28% without supplement): 50%
